Measured values from ChEMBL document CHEMBL4270534, “Novel carbazole-triazole conjugates as DNA-targeting membrane active potentiators against clinical isolated fungi” (Eur J Med Chem, 2018).
Values after ≈ are worked out from the molar mass of the structure shown. Active and inactive are the calls of the source. The rule behind the calls is not given here.

Legend:
Staphylococcus aureus [1] = test: Antibacterial activity against Staphylococcus aureus after 24 hrs by micro broth dilution method; assay type: functional
Aspergillus fumigatus [2] = test: Synergistic antifungal activity against Aspergillus fumigatus after 18 hrs in presence of fluconazole by checkerboard assay; assay type: functional
Candida albicans [3] = test: Antifungal activity against Candida albicans after 24 hrs by two-fold broth microdilution assay; assay type: functional
Candida parapsilosis [4] = test: Antifungal activity against Candida parapsilosis ATCC 22019 after 24 hrs by two-fold broth microdilution assay; assay type: functional; settings: Lodderomyces parapsilosis, ATCC 22019, 24 h
Enterococcus faecalis = test: Antibacterial activity against Enterococcus faecalis after 24 hrs by micro broth dilution method; assay type: functional
Staphylococcus aureus [5] = test: Antibacterial activity against Staphylococcus aureus ATCC 25923 after 24 hrs by micro broth dilution method; assay type: functional; settings: ATCC 25923, 24 h
Pseudomonas aeruginosa [6] = test: Antibacterial activity against Pseudomonas aeruginosa ATCC 27853 after 24 hrs by micro broth dilution method; assay type: functional; settings: ATCC 27853, 24 h
Acinetobacter baumannii = test: Antibacterial activity against Acinetobacter baumannii after 24 hrs by micro broth dilution method; assay type: functional
Candida tropicalis [7] = test: Ratio of MFC to MIC for Candida tropicalis; assay type: functional
Staphylococcus aureus [8] = test: Antibacterial activity against Staphylococcus aureus ATCC 29213 after 24 hrs by micro broth dilution method; assay type: functional; settings: ATCC 29213, 24 h
Candida tropicalis [9] = test: Fungicidal activity against Candida tropicalis incubated for 24 hrs followed by plating onto tryptic soy agar medium and measured after 24 hrs by broth microdilution method; assay type: functional
Candida albicans [10] = test: Synergistic antifungal activity against Candida albicans after 18 hrs in presence of fluconazole by checkerboard assay; assay type: functional
Aspergillus fumigatus [11] = test: Antifungal activity against Aspergillus fumigatus after 24 hrs by two-fold broth microdilution assay; assay type: functional
Candida tropicalis [12] = test: Synergistic antifungal activity against Candida tropicalis assessed as FIC index after 18 hrs in presence of fluconazole by checkerboard assay; assay type: functional
Candida parapsilosis [13] = test: Ratio of MFC to MIC for Candida parapsilosis ATCC 22019; assay type: functional
Pseudomonas aeruginosa [14] = test: Antibacterial activity against Pseudomonas aeruginosa after 24 hrs by micro broth dilution method; assay type: functional
Klebsiella pneumoniae = test: Antibacterial activity against Klebsiella pneumoniae after 24 hrs by micro broth dilution method; assay type: functional
Candida albicans [15] = test: Antifungal activity against Candida albicans ATCC 90023 after 24 hrs by two-fold broth microdilution assay; assay type: functional; settings: ATCC 90023, 24 h
Candida parapsilosis [16] = test: Fungicidal activity against Candida parapsilosis ATCC 22019 incubated for 24 hrs followed by plating onto tryptic soy agar medium and measured after 24 hrs by broth microdilution method; assay type: functional; settings: Lodderomyces parapsilosis, ATCC 22019, 24 h
Candida tropicalis [17] = test: Synergistic antifungal activity against Candida tropicalis after 18 hrs in presence of fluconazole by checkerboard assay; assay type: functional
Candida albicans [18] = test: Fungicidal activity against Candida albicans incubated for 24 hrs followed by plating onto tryptic soy agar medium and measured after 24 hrs by broth microdilution method; assay type: functional
Staphylococcus aureus [19] = test: Antibacterial activity against methicillin-resistant Staphylococcus aureus after 24 hrs by micro broth dilution method; assay type: functional
Candida tropicalis [20] = test: Antifungal activity against Candida tropicalis after 24 hrs by two-fold broth microdilution assay; assay type: functional
Escherichia coli [21] = test: Antibacterial activity against Escherichia coli after 24 hrs by micro broth dilution method; assay type: functional
Candida albicans [22] = test: Synergistic antifungal activity against Candida albicans assessed as FIC index after 18 hrs in presence of fluconazole by checkerboard assay; assay type: functional
Aspergillus fumigatus [23] = test: Synergistic antifungal activity against Aspergillus fumigatus assessed as FIC index after 18 hrs in presence of fluconazole by checkerboard assay; assay type: functional
Candida albicans [24] = test: Ratio of MFC to MIC for Candida albicans; assay type: functional
Escherichia coli [25] = test: Antibacterial activity against Escherichia coli ATCC 25922 after 24 hrs by micro broth dilution method; assay type: functional; settings: ATCC 25922, 24 h
Albumin = Albumin (Homo sapiens, UniProt P02768); test: Binding affinity to human serum albumin assessed as increase in peak intensity at tryptophan/tyrosine/phenylalanine residue up to 2 x 10^-5mol/L by UV-vis absorption spectra analysis; assay type: ADME; settings: isolated protein
Candida albicans [26] = test: Antifungal activity against Candida albicans at MIC after 10 serial passages; assay type: functional, organism-based
Candida parapsilosis [27] = test: Potency index, ratio of fluconazole MIC to test compound MIC for Candida parapsilosis ATCC 22019; assay type: functional
Calf thymus DNA [28] = test: Binding affinity to calf thymus DNA by UV absorption spectral analysis; assay type: nucleic-acid assay; settings: Bos taurus
Candida albicans [29] = test: Potentiation of fluconazole-induced antifungal activity against Candida albicans at MIC after 16 serial passages; assay type: functional, organism-based
Calf thymus DNA [30] = test: Binding affinity to calf thymus DNA assessed as hypochromic shift up to 2 x 10^-5mol/L by UV absorption spectral analysis; assay type: nucleic-acid assay; settings: Bos taurus
Calf thymus DNA [31] = test: Binding affinity to calf thymus DNA assessed as Stern-Volmer quenching constant at 1 x 10^-5 mol/L in presence of potassium iodide by fluorescence assay (reference value: 12.9 L/mol); assay type: nucleic-acid assay; settings: Bos taurus
Calf thymus DNA [32] = test: Displacement of neutral dye from calf thymus DNA up to 2 x 10^-5mol/L by UV absorption spectra analysis; assay type: nucleic-acid assay; settings: Bos taurus
Candida tropicalis [33] = test: Potency index, ratio of fluconazole MIC to test compound MIC for Candida tropicalis; assay type: functional
Candida albicans [34] = test: Induction of cytoplasmic membrane depolarization in Candida albicans measured for 300 secs by DiSC3-5 dye based fluorescence spectral analysis; assay type: functional, organism-based
Candida albicans [35] = test: Antifungal activity against Candida albicans assessed as ratio of MIC after and before 10 serial passages; assay type: functional

Chain of Albumin (P02768 whole entry): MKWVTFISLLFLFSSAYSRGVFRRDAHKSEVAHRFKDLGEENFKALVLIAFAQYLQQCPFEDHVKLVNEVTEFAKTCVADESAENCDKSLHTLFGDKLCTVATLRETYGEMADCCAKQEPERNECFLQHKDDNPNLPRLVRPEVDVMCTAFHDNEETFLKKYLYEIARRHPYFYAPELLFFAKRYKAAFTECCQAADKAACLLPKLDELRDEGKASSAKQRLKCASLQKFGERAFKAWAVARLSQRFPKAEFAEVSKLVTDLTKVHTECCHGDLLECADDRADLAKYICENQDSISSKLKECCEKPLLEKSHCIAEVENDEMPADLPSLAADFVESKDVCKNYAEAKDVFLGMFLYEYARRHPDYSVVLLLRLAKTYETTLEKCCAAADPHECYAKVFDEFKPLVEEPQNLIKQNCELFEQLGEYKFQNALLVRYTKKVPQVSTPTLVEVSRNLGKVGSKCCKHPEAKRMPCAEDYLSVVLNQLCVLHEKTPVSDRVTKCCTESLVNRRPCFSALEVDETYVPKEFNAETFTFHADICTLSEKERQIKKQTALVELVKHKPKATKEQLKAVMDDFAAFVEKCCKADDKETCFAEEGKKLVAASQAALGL

| SMILES | MIC (Staphylococcus aureus [1]) [µg/mL] | MIC (Aspergillus fumigatus [2]) [µg/mL] | MIC (Candida albicans [3]) [µg/mL] | MIC (Candida parapsilosis [4]) [µg/mL] | MIC (Enterococcus faecalis) [µg/mL] | MIC (Staphylococcus aureus [5]) [µg/mL] | MIC (Pseudomonas aeruginosa [6]) [µg/mL] | MIC (Acinetobacter baumannii) [µg/mL] | Ratio (Candida tropicalis [7]) | MIC (Staphylococcus aureus [8]) [µg/mL] | MFC (Candida tropicalis [9]) [µg/mL] | MIC (Candida albicans [10]) [µg/mL] | MIC (Aspergillus fumigatus [11]) [µg/mL] | fractional inhibitory concentration index (FICI) (Candida tropicalis [12]) | Ratio (Candida parapsilosis [13]) | MIC (Pseudomonas aeruginosa [14]) [µg/mL] | MIC (Klebsiella pneumoniae) [µg/mL] | MIC (Candida albicans [15]) [µg/mL] | MFC (Candida parapsilosis [16]) [µg/mL] | MIC (Candida tropicalis [20]) [µg/mL] | also measured |
| --- | --- | --- | --- | --- | --- | --- | --- | --- | --- | --- | --- | --- | --- | --- | --- | --- | --- | --- | --- | --- | --- |
| OC(Cn1cncn1)(Cn1c2ccccc2c2ccc(Br)cc21)c1ccc(F)cc1F (stereo not drawn) | 64 (≈ 132 µM) | 16 | 16 (≈ 33.1 µM) | 16 (≈ 33.1 µM) | 32 (≈ 66.2 µM) | 16 (≈ 33.1 µM) | 128 (≈ 265 µM) | 64 (≈ 132 µM) | 1 | 32 (≈ 66.2 µM) | 4 (≈ 8.28 µM) | 4 | 64 (≈ 132 µM) | 1.5 | 2 | 64 (≈ 132 µM) | 128 (≈ 265 µM) | 16 (≈ 33.1 µM) | 32 (≈ 66.2 µM) | 4 (≈ 8.28 µM) | MIC (Candida tropicalis [17]): 4 µg/mL; MFC (Candida albicans [18]): 16 µg/mL (≈ 33.1 µM); MIC (Staphylococcus aureus [19]): 16 µg/mL (≈ 33.1 µM); MIC (Escherichia coli [21]): 64 µg/mL (≈ 132 µM); fractional inhibitory concentration index (FICI) (Candida albicans [22]): 1.25; fractional inhibitory concentration index (FICI) (Aspergillus fumigatus [23]): 0.32; Ratio (Candida albicans [24]): 1; MIC (Escherichia coli [25]): 64 µg/mL (≈ 132 µM) |
| OC(Cn1cncn1)(Cn1c2ccccc2c2cc(Br)ccc21)c1ccc(F)cc1F (stereo not drawn) | 32 (≈ 66.2 µM) | 16 | 8 (≈ 16.6 µM) | 8 (≈ 16.6 µM) | 32 (≈ 66.2 µM) | 16 (≈ 33.1 µM) | 128 (≈ 265 µM) | 64 (≈ 132 µM) | 8 | 16 (≈ 33.1 µM) | 32 (≈ 66.2 µM) | 2 | 64 (≈ 132 µM) | 1.5 | 1 | 64 (≈ 132 µM) | 128 (≈ 265 µM) | 32 (≈ 66.2 µM) | 8 (≈ 16.6 µM) | 4 (≈ 8.28 µM) | MIC (Candida tropicalis [17]): 4 µg/mL; MFC (Candida albicans [18]): 16 µg/mL (≈ 33.1 µM); MIC (Staphylococcus aureus [19]): 16 µg/mL (≈ 33.1 µM); MIC (Escherichia coli [21]): 32 µg/mL (≈ 66.2 µM); fractional inhibitory concentration index (FICI) (Candida albicans [22]): 0.75; fractional inhibitory concentration index (FICI) (Aspergillus fumigatus [23]): 0.32; Ratio (Candida albicans [24]): 2; MIC (Escherichia coli [25]): 32 µg/mL (≈ 66.2 µM) |
| OC(Cn1cncn1)(Cn1c2ccc(Br)cc2c2cc(Br)ccc21)c1ccc(F)cc1F (stereo not drawn) | 64 (≈ 114 µM) | 16 | 4 (≈ 7.11 µM) | 2 (≈ 3.56 µM) | 32 (≈ 56.9 µM) | 32 (≈ 56.9 µM) | 16 (≈ 28.5 µM) | 128 (≈ 228 µM) | 2 | 16 (≈ 28.5 µM) | 8 (≈ 14.2 µM) | 0.5 | 32 (≈ 56.9 µM) | 0.75 | 2 | 64 (≈ 114 µM) | 128 (≈ 228 µM) | 8 (≈ 14.2 µM) | 4 (≈ 7.11 µM) | 4 (≈ 7.11 µM) | Activity (Albumin): Active; Activity (Candida albicans [26]): Active; Ratio (Candida parapsilosis [27]): 2; K (Calf thymus DNA [28]): 7.8 ×10³ L/mol; Activity (Candida albicans [29]): Active; MIC (Candida tropicalis [17]): 2 µg/mL; Activity (Calf thymus DNA [30]): Active; KSV (Calf thymus DNA [31]): 10 L/mol; MFC (Candida albicans [18]): 8 µg/mL (≈ 14.2 µM); Activity (Calf thymus DNA [32]): Active; MIC (Staphylococcus aureus [19]): 4 µg/mL (≈ 7.11 µM); Ratio (Candida tropicalis [33]): 2; Activity (Candida albicans [34]): Dose-dependent effect; MIC (Escherichia coli [21]): 16 µg/mL (≈ 28.5 µM); fractional inhibitory concentration index (FICI) (Candida albicans [22]): 0.25; fractional inhibitory concentration index (FICI) (Aspergillus fumigatus [23]): 0.56; Ratio (Candida albicans [24]): 2; MIC (Escherichia coli [25]): 32 µg/mL (≈ 56.9 µM) |
| OC(Cn1cncn1)(Cn1cncn1)c1ccc(F)cc1F [FLUCONAZOLE] | – | – | 4 (≈ 13.1 µM) | 4 (≈ 13.1 µM) | – | – | – | – | – | – | – | – | 256 (≈ 836 µM) | – | – | – | – | 2 (≈ 6.53 µM) | – | 8 (≈ 26.1 µM) | Ratio (Candida albicans [35]): 8 |
| OC(Cn1cncn1)(Cn1c2ccccc2c2ccccc21)c1ccc(F)cc1F (stereo not drawn) | 64 (≈ 158 µM) | 32 | 32 (≈ 79.1 µM) | 8 (≈ 19.8 µM) | 16 (≈ 39.6 µM) | 32 (≈ 79.1 µM) | 256 (≈ 633 µM) | 128 (≈ 317 µM) | 2 | 32 (≈ 79.1 µM) | 16 (≈ 39.6 µM) | 2 | 128 (≈ 317 µM) | 1 | 4 | 128 (≈ 317 µM) | 64 (≈ 158 µM) | 16 (≈ 39.6 µM) | 32 (≈ 79.1 µM) | 8 (≈ 19.8 µM) | MIC (Candida tropicalis [17]): 4 µg/mL; MFC (Candida albicans [18]): 32 µg/mL (≈ 79.1 µM); MIC (Staphylococcus aureus [19]): 64 µg/mL (≈ 158 µM); MIC (Escherichia coli [21]): 128 µg/mL (≈ 317 µM); fractional inhibitory concentration index (FICI) (Candida albicans [22]): 0.56; fractional inhibitory concentration index (FICI) (Aspergillus fumigatus [23]): 0.37; Ratio (Candida albicans [24]): 1; MIC (Escherichia coli [25]): 128 µg/mL (≈ 317 µM) |
